Data from patent US20250325548A1, “TUMOR SUPPRESSOR P73 TRANSCRIPTIONALLY REGULATES C-FLIP TO IMPEDE ITS PRIMING OF EXTRINSIC APOPTOSIS WHILE AN EXAMPLE SWITCHER COMPOUND CB-7587351 DEGRADES C-FLIP PROTEIN” (Brown University, priority 2024, published 2025).
Where a SMILES comes first, the peptide text is derived from it. The star is where a group is joined. Cbz = O=C(OCc1ccccc1)*; CH2F = FC*

Assays:
[1] = target: T1, p73 (Homo sapiens, UniProt O15350); conditions: via releasing it from the inhibitory complex of mutant p53; cited from earlier work
T1 sequence (O15350 1-636): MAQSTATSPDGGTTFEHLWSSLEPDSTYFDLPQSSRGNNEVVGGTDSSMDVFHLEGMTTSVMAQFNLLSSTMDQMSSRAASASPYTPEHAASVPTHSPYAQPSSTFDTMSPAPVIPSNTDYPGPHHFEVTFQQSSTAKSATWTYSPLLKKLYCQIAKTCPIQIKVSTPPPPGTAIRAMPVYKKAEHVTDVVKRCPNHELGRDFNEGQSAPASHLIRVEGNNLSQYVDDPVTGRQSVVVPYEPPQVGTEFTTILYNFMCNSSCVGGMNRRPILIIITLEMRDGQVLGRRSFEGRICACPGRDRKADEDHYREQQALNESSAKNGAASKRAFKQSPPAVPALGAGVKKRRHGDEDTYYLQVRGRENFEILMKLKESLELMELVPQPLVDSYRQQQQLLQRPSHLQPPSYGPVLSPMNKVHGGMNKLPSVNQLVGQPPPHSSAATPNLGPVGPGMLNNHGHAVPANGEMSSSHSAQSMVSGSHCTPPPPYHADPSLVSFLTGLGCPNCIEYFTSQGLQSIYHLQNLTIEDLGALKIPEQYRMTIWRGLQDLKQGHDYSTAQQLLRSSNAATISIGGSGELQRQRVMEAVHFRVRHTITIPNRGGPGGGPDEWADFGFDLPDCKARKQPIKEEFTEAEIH

[2] = system: cancer cells; experiment: Sub-G1 flow cytometric assay in cancer cells; type: cell-based, human
Method: Flow Cytometry Assay: Briefly, cells were fixed with 70% ethanol, and stained with Propidium Iodide (PI), then subjected for CytoFLEX to measure DNA content of the PI-stained cells. Cell cycle distribution was analyzed with Flowjo.

[3] = system: caspase-3/7; experiment: Caspase-3/7 activity assay; type: cell-based, human; conditions: DLD-1 cancer cells, 36 hours
[4] = system: panel of cancer cell lines; experiment: CellTiter-Glo cell viability, panel of cancer cell lines versus MRC-5; type: cell-based, human; conditions: cancer cells compared with normal fibroblast MRC-5 cells, 48 hr
Method: […] Cell viability was measured by CellTiter-Glo bioluminescence (Promega, catalog no. G7572), and analyzed using an IVIS imager.

[5] = system: γ-H2AX; experiment: γ-H2AX phosphorylation (DNA damage) in SW480 cells; type: cell-based, human
[6] = system: p53 target genes; experiment: Real-time RT-PCR of p53 target genes; type: cell-based, human; conditions: SW480 cells, 3 hr, normalized to GAPDH
[7] = system: p53-mutant cancer cells; experiment: Apoptosis by PARP cleavage and Annexin V after caspase knockdown; type: cell-based, human; conditions: CB-7587351 at 10 μM
Method: Annexin V levels were measured using RealTime-Glo™ Annexin V assay kit (Promega). The bioluminescent Annexin V was analyzed using an IVIS imager.
(§1) Western Blot analysis: An equal amount of protein in the cell lysate was loaded in each well and electrophoresed through 4-12% SDS-PAGE then transferred to a PVDF membrane. The primary antibodies indicated in the FIGs. were incubated with the PVDF membrane after transfer in blocking buffer at 4° C. overnight. Antibody binding was detected on PVDF with appropriate IR Dye-secondary antibodies (LI-COR Biosciences, USA) by the ODYSSEY infrared imaging system or with ECL Reagent (Thermo Fisher Scientific, catalog no. 32106) chemiluminescence reaction with appropriate horseradish peroxidase (HRP)-conjugated secondary antibodies (Thermo Fisher Scientific, catalog no. no. 31460 for Goad anti-rabbit IgG and catalog no. 31430 for Goat anti-mouse IgG) by the Syngene imaging system.
Knockdown of gene expression by siRNA: Cells were transfected with siRNA using lipofectamine RNAiMAX (Life Technologies, catalog no. 13778075) as described in the protocol from the manufacturer.

[8] = system: DNA; experiment: DNA-intercalation test; conditions: not shown
[9] = system: cancer cells; experiment: Cell viability and synergy assay with TRAIL in cancer cells; type: cell-based, human; conditions: tested doses
Method: (§2) CellTiter-Glo luminescent Cell viability assay: Cells were seeded on 96-well plates with a density of 3000 cells/well and treated with small molecule compounds as desired for 72 hours. Cell viability was measured by CellTiter-Glo bioluminescence (Promega, catalog no. G7572), and analyzed using an IVIS imager.
(§3) Statistical analysis: Statistical analyses were performed using the student's t-test or Anova with GraphPad Prism software. Statistical significance was determined by p<0.05. Combination indices were calculated using the Chou-Talalay method with CompuSyn software.

[10] = system: caspase-3; experiment: Western blot of cleaved caspase-3; type: cell-based, human; conditions: cancer cells, early time points
Method: as §1

[11] = system: colorectal cancer cells; experiment: Colony formation assay; type: cell-based, human
[12] = system: c-FLIP; experiment: Real-time PCR of c-FLIP mRNA in cancer cells; type: cell-based, human; conditions: cancer cells treated with CB-7587351, Real-time PCR
[13] = system: PARP; experiment: Western blot of cleaved PARP with TRAIL combination; type: cell-based, human; conditions: cancer cells
Method: as §1

[14] = system: normal cells; experiment: Cell viability and synergy assay with TRAIL in normal cells; type: cell-based; conditions: tested doses
Method: as §2, §3

[15] = system: p53 reporter, PG13-luc; experiment: PG13-luc p53-reporter bioluminescence assay; type: cell-based, human
Method: Materials and Methods; High-Throughput Screening: Functional cell-based screening for small molecules that increase p53-transcriptional activity was performed as described in the previous study using noninvasive bioluminescence imaging in human colorectal cancer cells which stably express a p53 reporter, PG13-luc. […] DMSO treatment was used as a negative control in each screened plate. Compounds that increased p53-responsive bioluminescence were selected for secondary screening.

[16] = system: p53 targets; experiment: Western blot of endogenous p53 targets; type: cell-based, human
Method: as §1

[17] = system: c-FLIP; experiment: Western blot of c-FLIP protein levels in cancer cells; type: cell-based, human
Method: as §1

Structure (SMILES): O=C(CSC1=NCCS1)c1ccc(O)c(O)c1 [RETRA, 2-(4,5-Dihydro-1,3-thiazol-2-ylthio)-1-(3,4-dihydroxyphenyl)-1-ethanone]
- activation of p73 [1]: activate p73

Structure (SMILES): COC(=O)C[C@H](NC(=O)[C@H](C)NC(=O)[C@@H](NC(=O)OCc1ccccc1)C(C)C)C(=O)CF [z-VAD-FMK, reference compound] (Cbz-Val-Ala-Asp(OMe)-CH2F)
- CB-7587351-induced apoptosis with pan-caspase inhibitor (sub-G1 assay) ([2]; SW480, HT29, HCT116 p53-/- and HCT116): blocked the effect of CB-7587351 on apoptosis

Structure (SMILES): CCOc1cccc2c(C)nc(Nc3nc(=O)c4c([nH]3)CCCC4)nc12 [CB-7587351, 2-(8-Ethoxy-4-methyl-2-quinazolinylamino)-5,6,7,8-tetrahydro-4 (1H)-quinazolinone]
- caspase-3/7 activity [3]: increase
- IC50s, cell viability [4]: much lower in cancer cells than those in normal fibroblast MRC-5 cells
- phosphorylation of γ-H2AX ([5]; SW480 cells, increased dose, early time points): No phosphorylation
- genotoxicity ([5]; conclusion from γ-H2AX and DNA-intercalation): little or no genotoxicity
- selected p53 targets at the mRNA level [6]: slight increase
- apoptosis (PARP cleavage, Annexin V) after knockdown of caspase-8 [7]: prevented apoptosis
- DNA-intercalation [8]: no DNA-intercalation was detected
- sub-G1 content and Annexin V levels with overexpression of p73 ([2]; Ad-p73 infection, 48 hr (sub-G1), 24 hours (Annexin)): enhanced the anti-tumor effect
- sub-G1 content and PARP cleavage after knockdown of p73 ([2]; DLD-1 cells, 72 hr (sub-G1), 48 h (PARP)): abrogated the effect
- sub-G1 content ([2]; cancer cells, 48 hr): increase in sub-G1 content
- synergy with TRAIL on cell viability [9]: synergized with TRAIL
- cleaved caspase-3 [10]: increase
- colony formation [11]: dramatically reduced
- c-FLIP expression at the mRNA level [12]: no significant changes
- TRAIL-induced PARP cleavage [13]: enhanced TRAIL-induced PARP cleavage
- synergy with TRAIL on cell viability [14]: not in normal cells
- p53-responsive bioluminescence ([15]; SW480, DLD1, HCT116 p53-/- and HCT116, dose dependent): strongly induced
- effect on PG13-luc reporter with overexpression of p73-β or wild-type p53 ([15]; adenovirus infection, then CB-7587351 16 hr): further enhanced
- PG-13-luciferase reporter after siRNA targeting p73 ([15]; p53-KO cancer cells): attenuated
- p21 and puma expression after knockdown of p73 ([16]; DLD-1 cells, 8 hr): blocked the activation effect
- endogenous p53 targets at the protein level ([16]; p53-mutant and wild colorectal cancer cell lines, 16 hr): increased
- c-FLIP degradation after knockdown of CHIP or ITCH ([17]; SW480, siRNA 48 hr then CB-7587351 8 hr): could not rescue c-FLIP
- p73-mediated upregulation of c-FLIP protein ([17]; SW480 cells with overexpression of p73, treatment 8 hr): reduced p73-mediated upregulation of c-FLIP protein
- c-FLIP protein expression ([17]; p53-mutant and p53 wild-type cancer cells, Western blot): reduced c-FLIP protein expression

Structure (SMILES): CC(C)C[C@@H](C=O)NC(=O)[C@H](CC(C)C)NC(=O)[C@H](CC(C)C)NC(=O)OCc1ccccc1 [MG132, reference compound] (Cbz-Leu-Leu-Leu-aldehyde)
- c-FLIP protein under CB-7587351 plus proteasome inhibitor ([17]; cancer cells co-treated with MG132 and CB-7587351): rescued c-FLIP from the CB-7587351-induced protein degradation

Structure (SMILES): CN1CCN(C(=O)/C=C/c2ccc([N+](=O)[O-])o2)CC1 [NSC59984, (E)-1-(4-Methyl-1-piperazinyl)-3-(5-nitro-2-furyl)-2-propen-1-one]
- activation of p73 [1]: activate p73
